{"source": "patent US8361999B2", "about": "“Methods of treating cholesterol gallstone disease with ezetimibe” (Pontificia Universidad Catolica de Chile, priority 2005, dated 2013)", "key": {"MRP2": {"test_system": "MRP2", "test": "Hepatic expression of MRP2 (Northern blot)", "type": "in vivo, mouse", "details": "14 days", "procedure": "Expression of Specific Bile Salts (Ntcp, Bsep), Phospholipid (MDR2) and Organic Anions or Glutathione (MRP2); And Determination of Glutathione Synthesis (Gluthamylcystein-Synthetase (GGCS)).\nTotal RNA extraction. 80 mg hepatic tissue frozen at −70° C. was homogenized in 800 μl solution D, following the method described by Chomczynski and Sacchi, 1987. The RNA concentration was calculated by measuring the absorbance at 260 nm and its purity by the ratio OD260/OD280. The samples are stored at −20° C. RNA electrophoresis. 10 μg of total RNA are dried under gaseous N2 or vacuum for 10 minutes. 10 μl loading buffer were added, and the samples heated to 65° C., loaded into a denaturing 1% agarose/formaldehyde gel and run at 100 volts for 4 hours. The RNA integrity was determined by the clear visualization of the 28 S and 18 S ribosomal RNAs (FIG. 8).\nNorthern Blot and hybridization with radioactive probes. The gel with the RNA samples is washed with DEPC H2O for 10 minutes to eliminate formaldehyde and then incubated for 20 minutes with 50 mM NaOH for partial RNA hydrolysis. After a 10 minute wash with DEPC H2O to eliminate NaOH, the samples are transferred from the gel to Nylon membranes (Hybond-N, Amersham Pharmacia) over night by a capillary system. […]\nProbe labeling by “de novo synthesis”. […] The percentage of incorporated radioactivity into the probe was always over 60%. […]"}, "C57BL/6J mice": {"test_system": "C57BL/6J mice", "test": "Lithiasis of the gallbladder and cholesterol crystals, protocol #2 (Ezetimibe in lithogenic diet, 30 days)", "type": "in vivo, mouse", "procedure": "We used mice C57BL/6J susceptible to the development of cholelithiasis originally obtained from Jackson Corp (Bar Harbor, Me., USA) and the colonies were grown in our Laboratory of Gastroenterology, Facultad de Medicina, P. Universidad Católica de Chile. The experimental groups were fed a control chow diet low in cholesterol (<0.02% cholesterol, Prolab RMH3000, PMI Feeds Inc., St. Louis, Mo.) or a lithogenic diet (1.25% cholesterol, 0.5% cholic acid, 15% fat, TD90221, Harlan Teklad, Madison, Wis.) (Amigo et al. 2000). These mice were also treated with Ezetimibe (Zetia®, Merk/Schering Plough) or placebo. In protocol #1 Zetia® tablets were grinded in a porcelain mortar and dissolved in water to be administered to the mice in one daily dose (08 h) of 5 mg/Kg weight by gavage in a final volume of […]; the control groups were given the same volume of water by gavage without the drug. […]\nSurgery and sample harvest. […] Afterwards, the common biliary duct is cannulated (biliary fistula) with a P-10 polyethylene cannula to collect bile during 15 minutes, determine bile flow by gravimetry (1 g bile=1 ml; bile flow is expressed as μl/min/g of mouse liver) and for posterior chemical analysis of biliary lipids and glutathione, as specified later. […]"}}, "note": "Entries after “also recorded” stand apart in the source; their conditions may differ."}
{"smiles": "O=C1[C@H](CC[C@H](O)c2ccc(F)cc2)[C@@H](c2ccc(O)cc2)N1c1ccc(F)cc1", "note": "[Ezetimibe, (−)-1-(4-fluorophenyl)-(3R)-[3-(4-fluorophenyl)-(.S)-hydroxypropyl]-(4S)-(4-hydroxyphenyl)-2-azetidinone]", "values": [{"measurement": "hepatic expression of MRP2, lithogenic diet plus Ezetimibe vs lithogenic diet", "setting": "MRP2", "result": "no significant differences"}, {"measurement": "mice that developed gallstones or cholesterol crystals in the gallbladder", "setting": "C57BL/6J mice; lithogenic diet plus Ezetimibe 5-6 mg/kg/day in the diet, 30 days, 100% on lithogenic diet alone", "result": 0, "unit": "%"}, {"measurement": "formation of cholesterol gallstones", "setting": "C57BL/6J mice; lithogenic diet plus Ezetimibe in the diet, 30 days (FIG. 5)", "result": "inhibits; also recorded: completely inhibited"}]}
